{
  "source": "patent US20240417403A1",
  "about": "“CRYSTALLINE FORMS OF QUINAZOLINE DERIVATIVES, PREPARATION, COMPOSITION AND USE THEREOF” (Hoffmann-La Roche Inc., priority 2021, published 2024)",
  "assay_type_in_all_cases": "physicochemical",
  "key": {"[1]": {"assay": "Slurry competition (interconversion of free base forms at different water activity)", "conditions": "slurry at 24 ±3° C.", "description": "Slurry competition experiments were performed to study the interconversion relationship between Freebase Type B and Freebase Type C. […] The inter-conversion relationship among anhydrate Freebase Type B and hydrates Type C/F/G was further investigated under different water activities at RT. the saturated solution of Freebase Type B was obtained via slurry of Freebase Type B at RT overnight in corresponding solvent systems. A mixture of Freebase Type B+C+F+G was added into corresponding saturated solution of Freebase Type B to form suspensions. The suspensions were sampled for XRPD after being stirred for four days at a speed of 750 rpm under RT."}, "[2]": {"assay": "Mechanical stability (XRPD form change after grinding and tableting)", "conditions": "for XRPD form change after grinding: grinding ~5 min; for XRPD form change after tableting: tableting ~234 Mpa", "description": "Mechanical stability of the solid forms was evaluated by monitoring the XRPD form change after grinding (˜5 min) and tableting (˜234 Mpa)."}, "[3]": {"assay": "TGA and DSC/mDSC thermal analysis (characterization of forms)", "conditions": "for TGA weight loss (%, temp.): to 150° C.", "description": "In salt screening and evaluation and in polymorph study, TGA was performed using a TA Q500, TA Q5000 or Discovery 5500 TGA from TA Instruments. DSC or mDSC was performed using a TA Q200/Q2000 or Discovery 2500 DSC from TA Instruments."}, "[4]": {"assay": "Equilibrium solubility in pH 4.5 buffer", "conditions": "37° C., stirred 24 hours", "description": "(§1) An Agilent 1260 HPLC instrument was utilized and detailed chromatographic conditions for purity and solubility analysis were listed in Table 6.\nAbout 5˜10 mg of solids were suspended in pH 4.5 buffer to get a mixture. The suspensions were stirred for 24 hours, followed by centrifugation and filtration to obtain supernatants for HPLC test."}, "Hygroscopicity by DVS": {"assay": "Hygroscopicity by DVS", "description": "DVS is measured via a SMS (Surface Measurement Systems) DVS Intrinsic. The relative humidity at 25° C. is calibrated against deliquescence point of LiCl, Mg(NO3)2 and KCl.\nDVS isotherm plot was collected at 25° C. to investigate the selected solid forms stability as a function of humidity. Compared with amorphous freebase, the hygroscopicity of Freebase Type B, Fumarate Type A, Fumarate Type B and Fumarate Type E was lower under 80% RH/25° C."}, "[5]": {"assay": "Form change on storage/exposure at ambient conditions (XRPD)", "conditions": "storage / exposure at ambient condition (Freebase Type E: 30 m)", "description": "About 15 mg of Fumarate Type A of compound (I) was suspended in 0.5 mL of H2O in an HPLC vial. The suspension was magnetically stirred at a speed of about 1000 rpm at RT for 9 days. The wet solids were isolated to afford Fumarate Type C of compound (I) (wet sample was analyzed). […] XRPD patterns and data were shown in FIG. 10 and Table 10, respectively.\nAbout 60 mg of Amorphous Freebase of compound (I) was suspended in 2 mL of THF/H2O (1:4, v/v) in an HPLC vial. The suspension was magnetically stirred at a speed of about 1000 rpm at 5° C. for 4 days. The solids were isolated via centrifugation and dried at ambient condition for about 2 hours. After sweeping the solids by N2 for 20 min at 30° C. Freebase Type E of compound (I) was obtained."}, "[6]": {"assay": "Contact angle against water (wettability)", "description": "The wettability of the solid forms was evaluated by the contact angle against water."}, "[7]": {"assay": "Solid state stability, 40° C./75% RH/open for 1 month (XRPD, HPLC purity)", "conditions": "for Purity/Initial by HPLC area % / Form Change: 40° C., 75% RH, open; for Form Change: by XRPD", "description": "as §1\nTo evaluate the solid state stability of the selected forms (amorphous freebase, Freebase Type F, Fumarate Type A and Fumarate Type B) samples were stored under 40° C./75% RH/open for 1 month. Stability samples were characterized by XRPD to check any solid form change and by HPLC to check purity change."}, "Crystal habit by PLM": {"assay": "Crystal habit by PLM", "from_the_text": "The PLM images were captured with Carl Zeiss Axio Scope. A1 microscope at RT.\nPLM was used to observe the crystal habit of the particles (amorphous freebase and Fumarate Type A)."}, "[8]": {"assay": "Equilibrium solubility in H2O", "conditions": "37° C., stirred 24 hours", "description": "as §1\nAbout 5˜10 mg of solids were suspended in H2O to get a mixture. The suspensions were stirred for 24 hours, followed by centrifugation and filtration to obtain supernatants for HPLC test."}, "[9]": {"assay": "Equilibrium solubility in pH 6.8 buffer", "conditions": "37° C., stirred 24 hours", "description": "as §1\nAbout 5˜10 mg of solids were suspended in pH 6.8 buffer to get a mixture. The suspensions were stirred for 24 hours, followed by centrifugation and filtration to obtain supernatants for HPLC test."}, "[10]": {"assay": "Angle of repose (flowability)", "conditions": "listed as Freebase amorphous", "from_the_text": "Form the angle of repose on a fixed base with a retaining lip to retain a layer of powder on the base. Carefully build up a symmetrical cone of powder. Determine the angle of repose by measuring the height (h) and base radius (r) of the cone of powder and calculating the angle of repose a from the following equation α=tan^−1(h/r).\n(§2) The results of amorphous freebase, Freebase Type F, Fumarate Type B and Fumarate Type E for flowability and compressibility were summarized in Table 30. Generally, powders with smaller Karl index would show better compressibility and flowability. And powders with smaller angle of repose would show better flowability."}, "[11]": {"assay": "Kinetic solubility in FaSSIF", "conditions": "FaSSIF, 37 °C, thermodynamic from solid", "description": "as §1\nKinetic solubility of amorphous freebase and Fumarate Type B/E was measured in FaSSIF to evaluate the solubility. […] After centrifugation, supernatants were collected for HPLC tests."}, "[12]": {"assay": "Bulk density, tap density and Carr index (flowability and compressibility)", "conditions": "listed as Freebase amorphous", "description": "Bulk density was determined by adding appropriate amount (m) of material into a 5 mL graduate cylinder and recording its apparent volume (v0). The bulk density was obtained by dividing the amount of material by its apparent volume of the unsettled material (ρ0=m/v0). For tap density, the cylinder was then tapped for 200 times. The tap density was then calculated by dividing the amount of material by its final tapped volume (ρ1=m/v1). Carr index=(ρ1−ρ0)/ρ1.\nas §2"}},
  "note": "Like-named read-outs stand apart in the source and are kept apart here. Marks after values point to notes of the source that are not given here.",
  "data": [
    {"compound": "COc1ccc2ncnc(Nc3ccc(Oc4cc5ncnn5cn4)c(C)c3)c2c1O[C@@H]1CCN(C)CC1(F)F", "note": "[Freebase Type B, (R)-N-(4-([1,2,4]triazolo[1,5-c]pyrimidin-7-yloxy)-3-methylphenyl)-5-((3,3-difluoro-1-methylpiperidin-4-yl)oxy)-6-methoxyquinazolin-4-amine]", "values": [
      {"measurement": "Critical water activity between Freebase Type B and Type C", "setting": "[1]", "value": "0.8-1"},
      {"measurement": "XRPD form change after grinding", "setting": "[2]", "value": "No"},
      {"measurement": "XRPD form change after tableting", "setting": "[2]", "value": "No"},
      {"measurement": "DSC endotherm (° C., peak)", "setting": "[3]; free base forms", "value": 169.4, "unit": "°C"},
      {"measurement": "TGA weight loss (%, temp.)", "setting": "[3]; free base forms", "value": "3.5 (to 150° C.) %"},
      {"measurement": "Solubility in pH 4.5 buffer", "setting": "[4]", "value": 0.3, "unit": "mg/mL"},
      {"measurement": "Hygroscopicity (in words)", "setting": "Hygroscopicity by DVS", "value": "slightly hygroscopic"},
      {"measurement": "Weight change at 80% RH/25° C. by DVS", "setting": "Hygroscopicity by DVS", "value": 0.2, "unit": "%"}
    ]},
    {"compound": "COc1ccc2ncnc(Nc3ccc(Oc4cc5ncnn5cn4)c(C)c3)c2c1O[C@@H]1CCN(C)CC1(F)F", "note": "[Freebase Type E, (R)-N-(4-([1,2,4]triazolo[1,5-c]pyrimidin-7-yloxy)-3-methylphenyl)-5-((3,3-difluoro-1-methylpiperidin-4-yl)oxy)-6-methoxyquinazolin-4-amine]", "values": [
      {"measurement": "Form conversion at ambient conditions", "setting": "[5]", "value": "converted to Freebase Type C"}
    ]},
    {"compound": "COc1ccc2ncnc(Nc3ccc(Oc4cc5ncnn5cn4)c(C)c3)c2c1O[C@@H]1CCN(C)CC1(F)F", "note": "[Fumarate Type A, (R)-N-(4-([1,2,4]triazolo[1,5-c]pyrimidin-7-yloxy)-3-methylphenyl)-5-((3,3-difluoro-1-methylpiperidin-4-yl)oxy)-6-methoxyquinazolin-4-amine]", "values": [
      {"measurement": "Contact angle", "setting": "[6]", "value": 20.3, "unit": "°"},
      {"measurement": "Purity/Initial by HPLC area %", "setting": "[7]", "value": 100.1, "unit": "%"},
      {"measurement": "Form Change", "setting": "[7]", "value": "No"},
      {"measurement": "Purity change by HPLC (chemical stability) compared with amorphous freebase", "setting": "[7]; 40° C./75% RH", "value": "lower purity change"},
      {"measurement": "Solid form change by XRPD (physical stability)", "setting": "[7]; 40° C./75% RH/open", "value": "no form change"},
      {"measurement": "Crystal habit of the particles", "setting": "Crystal habit by PLM", "value": "rod-like particles with regular shape"},
      {"measurement": "XRPD form change after grinding", "setting": "[2]", "value": "No"},
      {"measurement": "XRPD form change after tableting", "setting": "[2]", "value": "No"},
      {"measurement": "Solubility in H2O", "setting": "[8]", "value": "≥5000", "unit": "µg/mL"},
      {"measurement": "TGA weight loss (150° C., %)", "setting": "[3]; crystalline salts", "value": 1.9, "unit": "%"},
      {"measurement": "DSC endotherm (° C., peak)", "setting": "[3]; crystalline salts", "value": 167.6, "unit": "°C"},
      {"measurement": "DSC endotherm (° C., peak)", "setting": "[3]; fumarate forms", "value": 167.6, "unit": "°C"},
      {"measurement": "TGA weight loss (%, temp.)", "setting": "[3]; fumarate forms", "value": "1.9 (to 150° C.) %"},
      {"measurement": "Solubility in pH 4.5 buffer", "setting": "[4]", "value": "≥8.4", "unit": "mg/mL"},
      {"measurement": "Hygroscopicity (in words)", "setting": "Hygroscopicity by DVS", "value": "slightly hygroscopic"},
      {"measurement": "Weight change at 80% RH/25° C. by DVS", "setting": "Hygroscopicity by DVS", "value": 0.8, "unit": "%"}
    ]},
    {"compound": "COc1ccc2ncnc(Nc3ccc(Oc4cc5ncnn5cn4)c(C)c3)c2c1O[C@@H]1CCN(C)CC1(F)F", "note": "[Fumarate Type C, (R)-N-(4-([1,2,4]triazolo[1,5-c]pyrimidin-7-yloxy)-3-methylphenyl)-5-((3,3-difluoro-1-methylpiperidin-4-yl)oxy)-6-methoxyquinazolin-4-amine]", "values": [
      {"measurement": "Form conversion at ambient conditions", "setting": "[5]", "value": "Form conversion between Fumarate Type C and Fumarate Type B"},
      {"measurement": "TGA weight loss (150° C., %)", "setting": "[3]; crystalline salts", "value": 1.5, "unit": "%"}
    ]},
    {"compound": "COc1ccc2ncnc(Nc3ccc(Oc4cc5ncnn5cn4)c(C)c3)c2c1O[C@@H]1CCN(C)CC1(F)F", "note": "[amorphous freebase, (R)-N-(4-([1,2,4]triazolo[1,5-c]pyrimidin-7-yloxy)-3-methylphenyl)-5-((3,3-difluoro-1-methylpiperidin-4-yl)oxy)-6-methoxyquinazolin-4-amine]", "values": [
      {"measurement": "Contact angle", "setting": "[6]; listed as Freebase amorphous", "value": 37.2, "unit": "°"},
      {"measurement": "Form Change", "setting": "[7]", "value": "No"},
      {"measurement": "Purity/Initial by HPLC area %", "setting": "[7]; listed as Freebase amorphous", "value": 99.2, "unit": "%"},
      {"measurement": "Solubility in pH 6.8 buffer", "setting": "[9]", "value": 0.15, "unit": "mg/mL"},
      {"measurement": "Crystal habit of the particles", "setting": "Crystal habit by PLM", "value": "irregular-shaped particles without defined boundary"},
      {"measurement": "Solubility in H2O", "setting": "[8]", "value": 160, "unit": "µg/mL"},
      {"measurement": "Angle of repose", "setting": "[10]", "value": 39.9, "unit": "°"},
      {"measurement": "Tg, middle temperature", "setting": "[3]; amorphous free base, starred value in DSC column", "value": "58.7* ° C."},
      {"measurement": "TGA weight loss (%, temp.)", "setting": "[3]; free base forms", "value": "1.9 (to 150° C.) %"},
      {"measurement": "solubility at 1 h", "setting": "[11]; timepoint 1 h", "value": 280, "unit": "µg/mL"},
      {"measurement": "solubility at 2 h", "setting": "[11]; timepoint 2 h", "value": 270, "unit": "µg/mL"},
      {"measurement": "solubility at 24 h", "setting": "[11]; timepoint 24 h", "value": 260, "unit": "µg/mL"},
      {"measurement": "Solubility in pH 4.5 buffer", "setting": "[4]", "value": 0.18, "unit": "mg/mL"},
      {"measurement": "Carr index", "setting": "[12]; (ρ1−ρ0)/ρ1", "value": 43.8, "unit": "%"},
      {"measurement": "Bulk density", "setting": "[12]", "value": 0.23, "unit": "g/mL"},
      {"measurement": "Tapped density", "setting": "[12]; tapped 200 times", "value": 0.40, "unit": "g/mL"},
      {"measurement": "Weight change at 80% RH/25° C. by DVS", "setting": "Hygroscopicity by DVS; listed as Freebase amorphous", "value": 4.2, "unit": "%"}
    ]}
  ]
}
